Measured values taken from ChEMBL document CHEMBL1201862, “PubChem BioAssay data set” (2004).
Activity calls are given as the source filed them.

Tests used:
[1] = antiviral protection against BTV-induced cell death – arbovirus, BSR cells, confirmation (AID 1250); assay type: functional;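 further: protection from viral cytopathic effect measured as cell viability by ATP luminescence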
[2] = molecular target: T1, Neuropeptide Y receptor type 1 (Homo sapiens, UniProt P25929); assay type: functional;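 further: HEK293 cells with a CNG channel challenged with NPY then isoproterenol; potency as antagonist that reverses NPY suppression of cAMP signal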
T1 sequence (P25929 whole entry): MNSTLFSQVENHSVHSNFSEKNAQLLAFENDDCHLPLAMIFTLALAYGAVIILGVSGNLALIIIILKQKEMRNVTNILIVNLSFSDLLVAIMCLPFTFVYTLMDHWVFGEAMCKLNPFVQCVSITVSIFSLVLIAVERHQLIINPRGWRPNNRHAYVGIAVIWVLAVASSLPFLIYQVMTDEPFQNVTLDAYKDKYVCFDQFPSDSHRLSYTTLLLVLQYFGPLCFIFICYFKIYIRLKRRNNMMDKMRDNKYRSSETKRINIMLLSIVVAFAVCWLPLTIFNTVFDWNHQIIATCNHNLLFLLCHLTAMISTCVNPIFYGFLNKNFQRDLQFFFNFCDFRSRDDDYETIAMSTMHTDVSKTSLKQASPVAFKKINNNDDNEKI

[3] = molecular target: T2, Luciferin 4-monooxygenase (Photinus pyralis, UniProt P08659); assay: inhibition of purified Photinus pyralis luciferase – biochemical, luminescence, dose response (AID 1891)
[4] = Luminescence Cell-Based Dose Confirmation HTS to Identify Inhibitors of Platelet Dense Granule Release. [Related pubchem assays: 1663 (Primary HTS), 1678 (Summary of Project)]; assay type: functional
[5] = molecular target: T3, Neuropeptide Y receptor type 2 (Homo sapiens, UniProt P49146); assay type: functional, cell-based;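 further: HEK293 cells expressing the receptor and a CNG channel; stimulus was NPY near EC95 followed by isoproterenol to raise cAMP; antagonist potency measured as restoring cAMP signal that NPY suppresses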
T3 sequence (P49146 whole entry): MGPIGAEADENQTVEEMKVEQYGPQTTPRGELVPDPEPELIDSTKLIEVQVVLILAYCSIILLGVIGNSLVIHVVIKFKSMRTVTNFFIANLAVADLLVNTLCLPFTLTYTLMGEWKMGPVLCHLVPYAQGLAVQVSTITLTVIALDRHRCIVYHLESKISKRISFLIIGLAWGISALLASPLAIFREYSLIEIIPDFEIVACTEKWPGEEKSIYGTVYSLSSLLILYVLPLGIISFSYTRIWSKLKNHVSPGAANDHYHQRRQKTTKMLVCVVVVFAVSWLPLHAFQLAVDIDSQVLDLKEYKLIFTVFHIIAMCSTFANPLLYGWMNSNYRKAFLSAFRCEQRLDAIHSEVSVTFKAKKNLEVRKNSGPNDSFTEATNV

[6] = molecular target: T4, Apoptotic protease-activating factor 1 (Homo sapiens, UniProt O14727); assay type: functional
T4 sequence (O14727 whole entry): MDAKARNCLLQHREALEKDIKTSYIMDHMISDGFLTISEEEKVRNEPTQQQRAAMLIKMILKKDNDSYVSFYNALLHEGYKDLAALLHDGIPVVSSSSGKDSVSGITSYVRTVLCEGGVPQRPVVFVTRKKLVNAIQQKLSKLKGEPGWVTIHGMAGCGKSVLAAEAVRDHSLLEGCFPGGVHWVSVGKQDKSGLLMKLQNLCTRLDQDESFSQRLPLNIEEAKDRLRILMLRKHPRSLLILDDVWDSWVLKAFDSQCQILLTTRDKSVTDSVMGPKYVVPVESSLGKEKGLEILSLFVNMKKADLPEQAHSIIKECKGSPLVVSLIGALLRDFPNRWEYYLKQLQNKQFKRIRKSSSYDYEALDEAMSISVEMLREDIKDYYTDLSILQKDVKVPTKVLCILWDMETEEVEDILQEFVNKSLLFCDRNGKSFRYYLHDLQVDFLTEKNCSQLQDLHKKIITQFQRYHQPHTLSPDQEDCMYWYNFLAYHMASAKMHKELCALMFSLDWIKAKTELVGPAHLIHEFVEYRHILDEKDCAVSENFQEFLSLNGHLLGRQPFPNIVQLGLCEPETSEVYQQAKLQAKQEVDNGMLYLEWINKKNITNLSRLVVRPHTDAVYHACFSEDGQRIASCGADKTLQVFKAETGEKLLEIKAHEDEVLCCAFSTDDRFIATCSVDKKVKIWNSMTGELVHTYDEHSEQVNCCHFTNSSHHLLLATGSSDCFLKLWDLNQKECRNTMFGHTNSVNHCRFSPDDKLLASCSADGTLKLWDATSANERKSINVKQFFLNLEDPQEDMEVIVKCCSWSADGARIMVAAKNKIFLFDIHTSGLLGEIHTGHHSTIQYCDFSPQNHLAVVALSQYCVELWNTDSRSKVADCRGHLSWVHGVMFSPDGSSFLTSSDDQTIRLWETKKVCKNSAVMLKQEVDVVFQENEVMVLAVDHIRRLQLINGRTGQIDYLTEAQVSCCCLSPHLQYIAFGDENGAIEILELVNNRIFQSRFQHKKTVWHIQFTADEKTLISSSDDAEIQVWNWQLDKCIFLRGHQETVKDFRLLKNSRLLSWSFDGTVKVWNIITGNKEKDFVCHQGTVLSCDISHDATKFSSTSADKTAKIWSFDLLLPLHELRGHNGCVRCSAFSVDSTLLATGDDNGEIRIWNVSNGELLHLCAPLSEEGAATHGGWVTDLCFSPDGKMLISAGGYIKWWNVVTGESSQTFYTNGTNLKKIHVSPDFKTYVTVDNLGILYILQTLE

H9c2 = assay: cells; assay type: functional, cell-based; conditions: Rattus norvegicus, H9c2, Myocardium;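 further: confirmatory concentration-response retest of ultra-high-throughput screening hits for modulation of myocardial damage; cell death induced by hydrogen peroxide oxidative stress; compound pretreatment for 60 min then peroxide exposure for 2 h; potency is for protecting the cells against peroxide damage rather than for killing them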
Aspartyl aminopeptidase = molecular target: T5, Aspartyl aminopeptidase (Plasmodium falciparum 3D7, UniProt Q8I2J3); assay: Counterscreen for inhibitors of M1 and M17 aminopeptidases: QFRET-based biochemical high throughput dose response assay for inhibitors of the Plasmodium falciparum M18 Aspartyl Aminopeptidase (PFM18AAP). [Related PubChem assays: 1619 (Screening assay (M17LAP inhibitors).), 1445 (Screening assay (M1AAP inhibitors).)]
T5 sequence (Q8I2J3 whole entry): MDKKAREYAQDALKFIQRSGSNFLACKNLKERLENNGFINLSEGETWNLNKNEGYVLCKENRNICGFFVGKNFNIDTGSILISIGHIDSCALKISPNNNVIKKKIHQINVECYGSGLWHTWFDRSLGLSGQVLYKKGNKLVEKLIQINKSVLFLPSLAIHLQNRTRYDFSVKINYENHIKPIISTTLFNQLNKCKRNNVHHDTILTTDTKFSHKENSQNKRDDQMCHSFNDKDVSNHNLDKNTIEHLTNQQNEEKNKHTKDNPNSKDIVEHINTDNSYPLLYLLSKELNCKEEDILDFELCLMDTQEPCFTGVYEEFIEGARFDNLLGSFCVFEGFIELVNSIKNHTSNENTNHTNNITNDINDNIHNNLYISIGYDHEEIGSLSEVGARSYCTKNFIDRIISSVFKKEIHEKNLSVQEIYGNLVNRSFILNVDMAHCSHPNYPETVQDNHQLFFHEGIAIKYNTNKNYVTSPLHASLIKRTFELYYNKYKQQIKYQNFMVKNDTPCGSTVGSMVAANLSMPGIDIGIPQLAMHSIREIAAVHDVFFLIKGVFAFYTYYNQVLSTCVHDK

Aminopeptidase N = molecular target: T6, Aminopeptidase N (Plasmodium falciparum FcB1/Columbia, UniProt O96935); assay: malaria alanyl aminopeptidase activity blockers – biochemical, fluorogenic H-Leu-NHMec substrate, 1536-well (AID 1445); set-up: species or system Plasmodium falciparum 3D7, 3D7
T6 sequence (O96935 whole entry): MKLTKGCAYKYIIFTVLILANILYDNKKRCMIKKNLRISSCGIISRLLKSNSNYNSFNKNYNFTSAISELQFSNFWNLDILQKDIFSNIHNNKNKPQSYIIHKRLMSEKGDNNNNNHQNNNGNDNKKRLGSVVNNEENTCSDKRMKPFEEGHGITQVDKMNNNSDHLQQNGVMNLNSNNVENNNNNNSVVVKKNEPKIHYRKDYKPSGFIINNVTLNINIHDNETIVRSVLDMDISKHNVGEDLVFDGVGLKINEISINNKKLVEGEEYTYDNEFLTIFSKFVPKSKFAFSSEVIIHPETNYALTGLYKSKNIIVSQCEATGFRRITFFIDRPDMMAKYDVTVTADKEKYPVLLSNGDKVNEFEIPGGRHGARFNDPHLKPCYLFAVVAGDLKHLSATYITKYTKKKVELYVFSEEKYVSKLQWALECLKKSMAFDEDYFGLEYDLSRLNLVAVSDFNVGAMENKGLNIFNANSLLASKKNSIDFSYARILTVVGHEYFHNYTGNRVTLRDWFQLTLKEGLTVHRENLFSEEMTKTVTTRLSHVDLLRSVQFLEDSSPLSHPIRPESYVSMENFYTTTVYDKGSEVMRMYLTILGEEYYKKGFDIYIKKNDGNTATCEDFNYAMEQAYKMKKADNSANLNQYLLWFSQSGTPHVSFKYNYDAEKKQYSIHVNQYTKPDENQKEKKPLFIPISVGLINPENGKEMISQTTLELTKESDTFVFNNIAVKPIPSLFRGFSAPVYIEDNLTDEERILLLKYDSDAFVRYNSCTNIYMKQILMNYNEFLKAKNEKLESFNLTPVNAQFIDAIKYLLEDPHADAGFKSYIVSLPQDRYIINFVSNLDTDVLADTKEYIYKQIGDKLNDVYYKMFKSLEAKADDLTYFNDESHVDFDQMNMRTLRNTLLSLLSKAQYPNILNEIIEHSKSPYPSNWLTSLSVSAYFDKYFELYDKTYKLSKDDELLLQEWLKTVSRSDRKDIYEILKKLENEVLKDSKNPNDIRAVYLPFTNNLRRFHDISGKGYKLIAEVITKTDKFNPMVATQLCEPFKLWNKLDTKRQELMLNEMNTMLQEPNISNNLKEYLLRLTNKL

Procathepsin L = Procathepsin L (Homo sapiens, UniProt P07711); assay: CTSL1 protease inhibition – biochemical, QFRET, 1536-well, counter-screen for M1/M17 aminopeptidase inhibitor project, dose response (AID 2214)
[7] = molecular target: T2, Luciferin 4-monooxygenase; assay: Counter Screen for Luciferase-based Assay Positives. [Related pubchem assays: 620, 618, 411 ]
HT-1080 = assay: HT1080 cell viability loss – fluorescence readout (AID 620); assay type: functional, cell-based; conditions: Homo sapiens
Leucine aminopeptidase = molecular target: T7, Leucine aminopeptidase (Plasmodium falciparum 3D7, UniProt Q8IL11); assay: P. falciparum M17LAP inhibitors, primary screen, biochemical, fluorogenic H-Leu-NHMec substrate, 1536-well (AID 1619); assay type: functional
T7 sequence (Q8IL11 whole entry): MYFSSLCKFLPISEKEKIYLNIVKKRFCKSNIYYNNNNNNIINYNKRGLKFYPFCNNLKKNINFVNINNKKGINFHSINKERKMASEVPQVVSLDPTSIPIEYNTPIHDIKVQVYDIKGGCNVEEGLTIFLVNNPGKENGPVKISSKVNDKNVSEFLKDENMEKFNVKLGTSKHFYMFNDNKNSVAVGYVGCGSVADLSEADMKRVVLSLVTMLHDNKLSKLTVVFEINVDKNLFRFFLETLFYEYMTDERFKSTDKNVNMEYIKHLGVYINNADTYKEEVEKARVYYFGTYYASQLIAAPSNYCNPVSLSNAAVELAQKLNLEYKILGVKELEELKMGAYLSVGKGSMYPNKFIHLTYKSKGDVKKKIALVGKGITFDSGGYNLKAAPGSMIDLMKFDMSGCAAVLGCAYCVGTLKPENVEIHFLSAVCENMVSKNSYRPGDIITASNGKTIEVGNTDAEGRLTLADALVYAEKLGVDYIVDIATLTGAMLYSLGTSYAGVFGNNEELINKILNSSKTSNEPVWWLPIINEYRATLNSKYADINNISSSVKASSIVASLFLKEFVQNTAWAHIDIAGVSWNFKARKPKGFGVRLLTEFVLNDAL

[8] = tested on: Streptococcus sp. 'group A'; assay: Streptococcus pyogenes SK(-)GAS viability under kanamycin – luminescence, BacTiterGlo, confirmation, counter-screen for streptokinase expression inhibitor project, dose response (AID 1900); assay type: functional, organism-based
Streptokinase A = molecular target: T8, Streptokinase A (Streptococcus pyogenes serotype M1, UniProt P10520); assay: viability-normalized secreted streptokinase activity reduction – plasminogen activation absorbance, OD405, dose response (AID 1914); assay type: functional, Streptococcus pyogenes M1 GAS;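 further: secreted streptokinase activity via plasminogen activation per viability signal from cell pellet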
T8 sequence (P10520 whole entry): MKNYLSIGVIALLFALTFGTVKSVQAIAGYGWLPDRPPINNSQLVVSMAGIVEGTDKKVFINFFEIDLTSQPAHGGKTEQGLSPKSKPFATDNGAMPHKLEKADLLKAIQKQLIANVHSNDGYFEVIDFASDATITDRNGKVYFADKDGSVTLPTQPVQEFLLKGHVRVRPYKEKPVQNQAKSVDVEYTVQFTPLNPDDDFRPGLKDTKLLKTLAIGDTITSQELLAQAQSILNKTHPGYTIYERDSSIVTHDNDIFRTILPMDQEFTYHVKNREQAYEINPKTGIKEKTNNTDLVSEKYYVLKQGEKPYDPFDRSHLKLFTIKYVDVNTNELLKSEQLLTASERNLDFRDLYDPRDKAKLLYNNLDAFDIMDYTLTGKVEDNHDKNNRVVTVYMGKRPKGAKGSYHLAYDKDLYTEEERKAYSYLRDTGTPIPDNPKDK

Streptococcus = assay: GAS UMAA2166 growth inhibition – luminescence, BacTiterGlo, counter-screen for streptokinase expression inhibitor project, dose response (AID 1915); assay type: functional, organism-based;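 further: potency for reduction of bacterial viability or growth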
[9] = HPDE-C7 pancreatic duct cell viability loss – fluorescence, HTS (AID 430); assay type: functional, cell-based; conditions: Homo sapiens
[10] = viability loss of HPDE-C7K cells – cell-based, fluorescence, HTS, primary screen (AID 431); assay type: functional; conditions: Homo sapiens

T2 sequence (P08659 whole entry): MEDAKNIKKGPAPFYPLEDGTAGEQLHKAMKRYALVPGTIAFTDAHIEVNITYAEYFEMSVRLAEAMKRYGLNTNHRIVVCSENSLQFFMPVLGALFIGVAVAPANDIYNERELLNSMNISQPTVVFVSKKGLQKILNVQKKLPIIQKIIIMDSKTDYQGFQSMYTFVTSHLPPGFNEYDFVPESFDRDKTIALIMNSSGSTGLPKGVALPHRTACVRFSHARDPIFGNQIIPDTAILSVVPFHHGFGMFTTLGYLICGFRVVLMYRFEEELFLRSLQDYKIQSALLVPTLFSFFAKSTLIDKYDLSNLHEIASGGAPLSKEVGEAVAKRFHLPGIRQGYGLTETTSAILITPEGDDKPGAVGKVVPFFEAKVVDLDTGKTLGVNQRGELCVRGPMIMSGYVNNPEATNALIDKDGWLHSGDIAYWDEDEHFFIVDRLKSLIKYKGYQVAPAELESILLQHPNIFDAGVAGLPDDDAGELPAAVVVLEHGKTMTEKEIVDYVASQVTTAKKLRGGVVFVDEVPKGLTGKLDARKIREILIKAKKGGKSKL
Sequence of Procathepsin L (P07711 whole entry): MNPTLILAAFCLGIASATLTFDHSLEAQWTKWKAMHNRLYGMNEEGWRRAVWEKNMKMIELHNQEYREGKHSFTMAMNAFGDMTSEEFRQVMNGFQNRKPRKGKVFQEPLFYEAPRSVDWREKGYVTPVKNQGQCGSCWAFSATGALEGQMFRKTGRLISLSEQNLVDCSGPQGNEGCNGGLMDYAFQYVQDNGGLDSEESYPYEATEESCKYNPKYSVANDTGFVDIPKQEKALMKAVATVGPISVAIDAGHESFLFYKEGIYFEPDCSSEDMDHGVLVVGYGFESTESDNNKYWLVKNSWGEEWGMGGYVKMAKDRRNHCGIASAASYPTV

COc1ccc(-c2cc(-c3ccc(Br)cc3)nc3ncnn23)cc1OC
IC50 [1]: 52.8 µM (active)

Cc1ccc(-c2nn3c(C)nnc3c3ccccc23)cc1S(=O)(=O)NC(C)c1ccccc1 (stereo unspecified)
IC50 [2]: 20.3 µM (not active) | EC50 [3]: > 112 µM (not active) | EC50 [4]: > 112 µM (not active) | IC50 [5]: 10.4 µM (not active) | IC50 [6]: 7.48 µM (active) | IC50 (H9c2): 35.8 µM (inactive)

CC(C)(C)c1nc2ccccc2c(=O)n1N1C(=O)c2ccccc2C1=O
IC50 (Aspartyl aminopeptidase): > 73.5 µM (not active) | IC50 (Aminopeptidase N): 16.1 µM (active) | IC50 (Procathepsin L): > 59.6 µM (not active)

Oc1cc(CSc2nnnn2-c2ccccc2)nc(Nc2ccc(F)cc2)n1
IC50 [1]: 38.2 µM (active)

COC(=O)c1ccc(-c2nc3cc(N)ccc3o2)cc1
EC50 [7]: 0.2 µM (active) | EC50 (HT-1080): > 50 µM (not active)

Cn1c(O)cc(=O)nc1SCC(=O)Nc1cccc2ccccc12
IC50 (Leucine aminopeptidase): 7.59 µM (active) | IC50 (Aspartyl aminopeptidase): > 73.5 µM (not active) | EC50 [8]: > 150 µM (not active) | EC50 (Streptokinase A): > 150 µM (not active) | IC50 (Procathepsin L): > 59.6 µM (not active) | EC50 (Streptococcus): 24.8 µM (active)

O=c1c2ccccc2[nH]c(=S)n1CCN1CCC(=C(c2ccc(F)cc2)c2ccc(F)cc2)CC1 [DIACYLGLYCEROL KINASE INHIBITOR II]
EC50 [9]: 3.94 µM (active) | EC50 [10]: 4.21 µM (active)
